Our source for the IC50, EC50 and Emax values is patent publication US6660870B1, “2-acylaminobenzimidazole derivatives for treating glaucoma” (Alcon, Inc., priority 2000, dated 2003).

In general, IC50 refers to the concentration needed to halve the response being measured. High values mean a need for much substance, low ones inhibition by little substance. As a reminder, the EC50 is the concentration that produces a half-maximal response. Read a high EC50 as lower potency in that assay. For orientation: Emax means the greatest response seen or fitted, relative to the assay's reference.

In one test the target is brain 5-HT2 receptors (Rattus norvegicus, UniProt P14842). Description: 5-HT2 Receptor Binding Assay ([125I]DOI competition). Particulars: competition for [125I]DOI binding, post mortem rat or human cerebral cortex homogenates. As for the experimental part: 5-HT2 Receptor Binding Assay
Aliquots of post mortem rat or human cerebral cortex homogenates (400 μl) dispersed in 50 mM TrisHCl buffer (pH 7.4) are incubated with [^125I]DOI (80 pM final) in the absence or presence of methiothepin (10 μM final) to define total and non-specific binding, respectively, in a total volume of 0.5 ml. The assay mixture is incubated for 1 hour at 23° C. in polypropylene tubes and the assays terminated by rapid vacuum filtration over Whatman GF/B glass fiber filters previously soaked in 0.3% polyethyleneimine using ice-cold buffer. Test compounds (at different concentrations) are substituted for methiothepin. Filter-bound radioactivity is determined by scintillation spectrometry on a beta counter. The data are analyzed using a non-linear. iterative curve-fitting computer program [Trends Pharmacol. Sci., 16, 413 (1995)] to determine the compound affinity parameter. The concentration of the compound needed to inhibit the [^125I]DOI binding by 50% of the maximum is termed the IC50 […].

Another test addresses T1, 5-HT2 receptor (Rattus norvegicus, UniProt P14842).
T1 construct: A7r5 rat vascular smooth muscle cells; endogenous in cells; host or cells: A7r5 rat vascular smooth muscle cells
Description: 5-HT2 Functional Assay: Phosphoinositide (PI) Turnover Assay. The note with it: for EC50: [3H]inositol phosphate production in A7r5 rat vascular smooth muscle cells. The format is cell-based. The protocol: 5-HT2 Functional Assay: Phosphoinositide (PI) Turnover Assay
The relative agonist activity of serotonergic compounds at the 5-HT2 receptor can be determined in vitro using the ability of the compounds to stimulate the production of [^3H]inositol phosphates in [^3H]myo-inositol-labeled A7r5 rat vascular smooth muscle cells by their ability to activate the enzyme phospholipase C. These cells are grown in culture plates, maintained in a humidified atmosphere of 5% CO2 and 95% air and fed semi-weekly with Dulbecco's modified Eagle medium (DMEM) containing 4.5 g/l glucose and supplemented with 2 mM glutamine, 10 μg/ml gentamicin, and 10% fetal bovine serum. For the purpose of conducting the phosphoinositide (PI) turnover experiments, the A7r5 cells are cultured in 24-well plates as previously [J. Pharmacol. Expt. Ther., 286, 411 (1998)]. Confluent cells are exposed for 24-30 hrs to 1.5 μCi [^3H]-myo-inositol (18.3 Ci/mmol) in 0.5 ml of serum-free medium. Cells are then rinsed once with DMEM/F-12 containing 10 mM LiCl prior to incubation with the test agent (or solvent as the control) in 1.0 ml of the same medium for 1 hr at 37° C., after which the medium is aspirated and 1 ml of cold 0.1 M formic acid added to stop the reaction. The chromatographic separation of [^3H]-inositol phosphates ([^3H]-IPs) on an AG-1-X8 column is performed as previously described [J. Pharmacol. Expt. […] The eluate (4 ml) is collected, mixed with 15 ml scintillation fluid, and the total [^3H]-IPs determined by scintillation counting on a beta-counter. Concentration-response data are analyzed by the sigmoidal fit function of the Origin Scientific Graphics software (Microcal Software, Northampton, Mass.) to determine agonist potency (EC50 value) and efficacy (Emax). Serotonin (5-HT) is used as a positive control (standard) agonist compound and the efficacy of test compounds is compared to that of 5-HT (set at 100%).

T1 sequence (P14842 whole entry): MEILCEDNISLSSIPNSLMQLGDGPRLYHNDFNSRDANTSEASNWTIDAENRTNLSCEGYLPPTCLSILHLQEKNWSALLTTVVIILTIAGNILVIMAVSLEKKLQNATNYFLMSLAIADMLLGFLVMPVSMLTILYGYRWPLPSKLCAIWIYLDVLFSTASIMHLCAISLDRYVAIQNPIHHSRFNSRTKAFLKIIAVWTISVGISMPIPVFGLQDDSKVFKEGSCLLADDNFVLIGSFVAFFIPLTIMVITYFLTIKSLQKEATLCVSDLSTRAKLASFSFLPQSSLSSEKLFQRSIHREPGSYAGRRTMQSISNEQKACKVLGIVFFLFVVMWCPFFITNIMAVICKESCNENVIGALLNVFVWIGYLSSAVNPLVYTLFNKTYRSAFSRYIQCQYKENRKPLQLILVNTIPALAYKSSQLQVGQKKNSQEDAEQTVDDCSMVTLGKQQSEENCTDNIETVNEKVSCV
Chain of brain 5-HT2 receptors (P14842 whole entry): as above

In turn, `COc1cc(C[C@@H](C)N)c(OC)cc1I` [(R)-DOI] gave a 50% inhibitory concentration (IC50) at brain 5-HT2 receptors of 0.46 nM. In addition, the EC50 at 5-HT2 receptor amounted to 277 nM.
Regarding `Cc1ccc(C(=O)Nc2nc3ccccc3n2CCN(C)C)cc1` [Example 1, 1-(N,N-Dimethylaminoethyl)-2-(4-methylbenzamido)benzimidazole], the Emax on 5-HT2 receptor (A7R5, read-out: Efficacy (Emax, %)) was found to be 35%. Besides, a half-maximal response at 5-HT2 receptor (EC50) required 404 nM.
